Measurements published in ChEMBL document CHEMBL4414544, “Dihydropyrimidine-2-thiones as Eg5 inhibitors and L-type calcium channel blockers: potential antitumour dual agents” (Medchemcomm, 2019).
Activity calls are given as the source filed them. The calls are words filed in the database; no cut-off is given here.

How the values were obtained:
Aorta [1] = experiment: Vasodilating activity in Wistar rat aortic rings assessed as reduction in phenylephrine-induced contractions; type: functional, tissue-based
Aorta [2] = experiment: Vasodilating activity in Wistar rat aortic rings assessed as reduction in KCl-induced contractions relative to control; type: functional
Aorta [3] = experiment: Vasodilating activity in Wistar rat aortic rings assessed as reduction in phenylephrine-induced contractions relative to control; type: functional
Aorta [4] = experiment: Vasodilating activity in Wistar rat aortic rings assessed as reduction in KCl-induced contractions; type: functional, tissue-based
[5] = biological target: T1, Kinesin-like protein KIF11 (Homo sapiens) (UniProt P52732); experiment: Inhibition of Eg5 in human MCF7 cells assessed as increase in monopolar spindle formation at 100 uM incubated for 24 hrs by DAPI staining based confocal microscopic method; type: cell-based
T1 sequence (whole entry): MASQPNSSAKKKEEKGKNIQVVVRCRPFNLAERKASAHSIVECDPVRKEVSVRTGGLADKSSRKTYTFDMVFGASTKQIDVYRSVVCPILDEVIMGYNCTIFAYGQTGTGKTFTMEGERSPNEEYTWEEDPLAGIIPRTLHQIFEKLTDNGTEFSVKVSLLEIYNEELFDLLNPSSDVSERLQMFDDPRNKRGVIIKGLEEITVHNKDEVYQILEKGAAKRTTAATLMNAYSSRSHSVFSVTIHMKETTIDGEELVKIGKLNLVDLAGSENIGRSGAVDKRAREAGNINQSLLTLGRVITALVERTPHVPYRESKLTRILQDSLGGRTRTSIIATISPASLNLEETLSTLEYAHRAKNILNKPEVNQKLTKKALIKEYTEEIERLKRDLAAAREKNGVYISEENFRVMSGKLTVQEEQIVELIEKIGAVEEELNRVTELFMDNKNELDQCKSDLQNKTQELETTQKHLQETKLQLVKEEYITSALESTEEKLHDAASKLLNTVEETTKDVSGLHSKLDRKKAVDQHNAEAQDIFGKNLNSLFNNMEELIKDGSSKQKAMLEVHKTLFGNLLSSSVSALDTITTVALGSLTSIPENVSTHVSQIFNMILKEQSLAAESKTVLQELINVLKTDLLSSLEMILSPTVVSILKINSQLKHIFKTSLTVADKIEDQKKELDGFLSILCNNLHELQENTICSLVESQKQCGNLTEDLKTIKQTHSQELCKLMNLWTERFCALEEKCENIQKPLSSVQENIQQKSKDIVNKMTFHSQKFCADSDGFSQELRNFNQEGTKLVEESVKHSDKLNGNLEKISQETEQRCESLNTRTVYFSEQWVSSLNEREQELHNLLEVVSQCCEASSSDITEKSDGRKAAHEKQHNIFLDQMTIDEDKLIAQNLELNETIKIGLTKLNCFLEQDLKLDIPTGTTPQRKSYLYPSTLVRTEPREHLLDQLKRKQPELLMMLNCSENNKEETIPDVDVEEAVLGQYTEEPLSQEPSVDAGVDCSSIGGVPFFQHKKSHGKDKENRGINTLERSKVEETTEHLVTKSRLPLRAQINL

HCT-116 = experiment: Antiproliferative activity against human HCT116 cells incubated for 72 hrs by MTT assay; type: functional, cell-based; details: HCT-116, 72 h
MM1.S = experiment: Antiproliferative activity against human MM1S cells incubated for 72 hrs by MTT assay; type: functional, cell-based
A549 = experiment: Antiproliferative activity against human A549 cells incubated for 72 hrs by MTT assay; type: functional, cell-based; details: A549, 72 h
MCF7 = experiment: Antiproliferative activity against human MCF7 cells incubated for 72 hrs by MTT assay; type: functional, cell-based; details: MCF7, 72 h
[6] = Cytotoxicity against human MSC assessed as reduction in cell viability incubated for 72 hrs by MTT assay; type: ADME
[7] = biological target: T2, Voltage-gated L-type calcium channel (Rattus norvegicus, UniProt P22002+Q02485+P27732); experiment: Inhibition of L-type calcium channel in Wistar rat aortic rings assessed as reduction in (-)-Bay K8644-induced contractions at 10^-4 M measured after 20 mins; details: 100 µM
Aorta [8] = experiment: Vasodilating activity in Wistar rat aortic rings assessed as reduction in phenylephrine-induced contractions in presence of Cacl2 in calcium free Krebs medium incubated for 1 hr relative to control; type: functional; parameters: scale not given: the % may be the effect or the level left
[9] = biological target: T2, Voltage-gated L-type calcium channel; experiment: Inhibition of L-type calcium channel in Wistar rat aortic rings assessed as reduction in (-)-Bay K8644-induced contractions at 10^-5 M measured after 20 mins; details: 10 µM

Structure (SMILES) | IC50 (Aorta [1]) [µM] | IC50 (Aorta [4]) [µM] | inhibition [5] | IC50 (HCT-116) [µM] | IC50 (MM1.S) [µM] | IC50 (A549) [µM] | IC50 (MCF7) [µM] | inhibition (INH) [7] | inhibition (INH) [9] | Emax (Aorta [2]) [%] | Emax (Aorta [3]) [%] | IC50 [6] [µM] | Activity (Aorta [8]) [%]
CCOC(=O)C1=C(C)NC(=S)NC1c1ccc(O)c(OC)c1 (racemic) | 29 | 91 | Active | > 100 | > 100 | > 100 | > 100 | – | – | 78.3 | 78 | – | –
CCOC(=O)C1=C(C)NC(=S)NC1c1cccnc1 (racemic) | 46 | 52 | – | > 100 | > 100 | > 100 | > 100 | – | – | 78.4 | 80.9 | – | –
CCOC(=O)C1=C(C)NC(=S)NC1c1ccc(OC)c(O)c1 (racemic) | 25 | 37 | – | > 100 | > 100 | > 100 | > 100 | – | – | 77 | 88.4 | – | –
CCOC(=O)C1=C(C)N=C(S)NC1c1cccc([N+](=O)[O-])c1 (racemic) | 3.2 | 16 | Active | 58 | 96.5 | 44.9 | 32.2 | Active | Active | 95.4 | 84.9 | > 100 | 18.1
CCOC(=O)C1=C(C)NC(=S)NC1c1cccc(O)c1 (racemic) [MONASTROL] | 6.9 | 1.2 | – | 9 | 8.7 | > 100 | 73 | Active | – | 89.5 | 95.2 | – | 81.8
COC(=O)C1=C(C)NC(C)=C(C(=O)OC)C1c1ccccc1[N+](=O)[O-] [NIFEDIPINE] | 0.019 | 0.0029 | – | > 100 | 57.9 | > 100 | > 100 | – | – | 98.7 | 75.1 | > 100 | –

The remaining compounds from weak to strong by IC50 (Aorta [1]), led by results:

IC50 (Aorta [1]) [µM] | IC50 (Aorta [4]) [µM] | inhibition [5] | IC50 (HCT-116) [µM] | IC50 (MM1.S) [µM] | IC50 (A549) [µM] | IC50 (MCF7) [µM] | inhibition (INH) [7] | inhibition (INH) [9] | Structure (SMILES) | Emax (Aorta [2]) [%] | Emax (Aorta [3]) [%] | IC50 [6] [µM] | Activity (Aorta [8]) [%]
42 | 36 | – | > 100 | 63.1 | > 100 | > 100 | – | – | CCOC(=O)C1=C(C)NC(=S)NC1c1ccc2cn[nH]c2c1 (racemic) | 48.5 | 61.2 | > 100 | –
26 | 38 | – | > 100 | > 100 | > 100 | > 100 | – | – | CCOC(=O)C1=C(C)NC(=S)NC1c1ccc(O)c([N+](=O)[O-])c1 (racemic) | 57.1 | 62.4 | – | –
5.6 | 12 | Active | > 100 | > 100 | > 100 | > 100 | Active | – | CCOC(=O)C1=C(C)NC(=S)NC1c1ccc2c(c1)OCCO2 (racemic) | 71.7 | 83.3 | > 100 | 41.8
